Drawing on US20260199510A1, “AN ANTIBODY-DRUG CONJUGATE HAVING TWO OR MORE FUNCTIONAL SMALL MOLECULE COMPOUNDS FOR ENHANCED TREATMENT OF REFRACTORY DISEASES” (priority 2023, published 2026), this text covers IC50 for one molecule.

Usually IC50 stands for the midpoint of a concentration-inhibition curve. Read a high IC50 as a need for much substance.

Common to all, as to type: cell-based
In assay [1] the test system is SU86.86 cells. Description: MTT assay of BsHer2-ADCs against SU86.86 cells. As to conditions: Homo sapiens, SU.86.86, BsHer2 (trastuzumab/pertuzumab)-ADCs, 5000 cells, 96 h incubation. On the technique in general: Formazan colour is commonly taken as a measure of viable cells.
Assay [2] relates to PC3-4H7 cells. Description: MTT assay of B7H3-ADCs against PC3-4H7 tumor cells. To be noted: 6000 cells, 96 h incubation. The text has this: Parent cell line PC-3 from Nanjing Cobioer Biosciences Co., was introduced with plasmid coexpress both human PSMA and RFP-Neomycin fusion protein and plasmid coexpress human Steap1 and GFP-Blasticidin fusion protein. The high expression cells were selected by neomycin and Blasticidin, and the selected clone 4H7 having high expression of both PSMA and Steapl was verified by FACs and chosen for further use in vitro and in vivo study.
The cell lines used in the cytotoxicity assays were: C4-2B Cells which was obtained from ATCC through license agreement with MD Anderson Cancer Center, Houston, TX, USA. 22RV1, U87, NCI-N87, MKN-7, JIMT-1, SU86.86, SW1990, OVCAR-3, Calu-3, A431, AsPC-1, HCC827 and H1975 cells were purchased from ATCC, Nanjing Cobioer and The Cell Bank of Shanghai Institute of Biochemistry and Cell Biology, and the others. C4-2B and PC-3-4H7 are both Steap1 and PSMA antigen high express cells, but medium expressed of both B7H3 and DLL3 antigens. 22RV1 is low express cells for Steapl, PSMA, B7H3 and DLL3 antigens. U87 is glioblastoma (GBM) cells, NCI-N87 and MKN-7 cell line are stable models of the gastric epithelium. […] After it was shaken for 15 min, the absorbance was measured at 490 nm and 570 nm with a reference filter of 620 nm. The inhibition % was calculated according to the following equation: inhibition % =[1-(assay-blank)/(control-blank)]x 100.

Assay [3] concerns MKN-7 cells. Description: MTT assay of BsHer2-ADCs against MKN-7 cells. As to conditions: Homo sapiens, BsHer2 (trastuzumab/pertuzumab)-ADCs, 5000 cells, 96 h incubation.
The test system of assay [4] is SW1990 cells. Description: MTT assay of BsHer2-ADCs against SW1990 cells. To be noted: Homo sapiens, BsHer2 (trastuzumab/pertuzumab)-ADCs, 5000 cells, 96 h incubation.
In assay [5] the test system is 22RV1 cells. Description: MTT assay of B7H3-ADCs against 22RV1 tumor cells. As to conditions: Homo sapiens, 6000 cells, 96 h incubation.
Assay [6] deals with C4-2B cells. Description: MTT assay of B7H3-ADCs against C4-2B tumor cells. To be noted: 6000 cells, 96 h incubation.
Assay [7] deals with NCI-N87 cells. Nature of the assay: MTT assay of BsHer2-ADCs against NCI-N87 cells. As to conditions: Homo sapiens, BsHer2 (trastuzumab/pertuzumab)-ADCs, 5000 cells, 96 h incubation.

The structures appear in SMILES notation.

With `CC(=O)O[C@H]1C(=O)[C@@]2(C)[C@H]([C@H](OC(=O)c3ccccc3)[C@]3(O)C[C@H](OC(=O)[C@H](O)[C@@H](NC(=O)c4ccccc4)c4ccccc4)C(C)=C1C3(C)C)[C@]1(OC(C)=O)CO[C@@H]1C[C@@H]2O` [Paclitaxel], the half-inhibitory concentration (IC50) in assay [1] stood at 2.98 nM; in assay [2], 2.03 nM; in assay [3] it was 10.2 nM; in assay [4], 0.042 nM; in assay [5], 1.85 nM; in assay [6] it was 1.59 nM. Further, in assay [7], the IC50 was 0.76 nM.
